Laboratory results taken from patent US10597367B2, “Metabotropic glutamate receptor negative allosteric modulators (NAMs) and uses thereof” (Sanford Burnham Prebys Medical Discovery Institute, priority 2014, dated 2020).
Where two headings read alike, the source gives them in different places.

Tests used:
[1] = target: mGlu2 receptor (Rattus norvegicus (Rat), UniProt P31421); assay: mGlu2 in vitro GIRK thallium flux assay; format: cell-based; conditions: NAM, HEK-293 GIRK cells
Procedure: All cell culture reagents were purchased from Invitrogen Corp. (Carlsbad, Calif.) unless otherwise noted. Compound activity at the group II (mGlu2 and mGlu3) mGlus was assessed using thallium flux through GIRK channels. Briefly, cells were plated into 384-well, black-walled, clear-bottomed poly-D-lysine-coated plates at a density of 15,000 cells/20 μL/well in DMEM containing 10% dialyzed FBS, 20 mM HEPES, and 100 units/mL penicillin/streptomycin (assay media). Plated cells were incubated overnight at 37° C. in the presence of 5% CO2. […] Cells were incubated for 1 h at room temperature, and the dye exchanged to assay buffer using an ELX405, leaving 20 μL/well. Test compounds were diluted to 2 times their final desired concentration in assay buffer (0.3% DMSO final concentration). […] Cell plates and compound plates were loaded onto a kinetic imaging plate reader (FDSS 6000 or 7000; Hamamatsu Corporation, Bridgewater, N.J.). Appropriate baseline readings were taken (10 images at 1 Hz; excitation, 470±20 nm; emission, 540±30 nm) and test compounds were added in a 20 μL volume and incubated for either 2.5 min or 60 min as indicated before the addition of 10 μL of thallium buffer with or without agonist. After the addition of agonist, data were collected for approximately an additional 2.5 min. Data were analyzed using Excel (Microsoft Corp, Redmond, Wash.). The slope of the fluorescence increase beginning 5 s after thallium/agonist addition and ending 15 s after thallium/agonist addition was calculated, corrected to vehicle and maximal agonist control slope values, and plotted in using either XLfit (ID Business Solutions Ltd) or Prism software (GraphPad Software, San Diego, Calif.) to generate concentration-response curves. Potencies were calculated from fits using a four-point parameter logistic equation. For concentration-response curve experiments, compounds were serially diluted 1:3 into 10 point concentration response curves and were transferred to daughter plates using an Echo acoustic plate reformatter (Labcyte, Sunnyvale, Calif.). Test compounds were applied and followed by EC80 concentrations of glutamate.

[2] = target: mGlu3 receptor (Rattus norvegicus (Rat), UniProt P31422); assay: mGlu3 in vitro GIRK thallium flux assay; format: cell-based; conditions: NAM; test compound incubated 2.5 min before EC80 glutamate; HEK-293 GIRK cells
Sequence of mGlu3 receptor (P31422 23-879): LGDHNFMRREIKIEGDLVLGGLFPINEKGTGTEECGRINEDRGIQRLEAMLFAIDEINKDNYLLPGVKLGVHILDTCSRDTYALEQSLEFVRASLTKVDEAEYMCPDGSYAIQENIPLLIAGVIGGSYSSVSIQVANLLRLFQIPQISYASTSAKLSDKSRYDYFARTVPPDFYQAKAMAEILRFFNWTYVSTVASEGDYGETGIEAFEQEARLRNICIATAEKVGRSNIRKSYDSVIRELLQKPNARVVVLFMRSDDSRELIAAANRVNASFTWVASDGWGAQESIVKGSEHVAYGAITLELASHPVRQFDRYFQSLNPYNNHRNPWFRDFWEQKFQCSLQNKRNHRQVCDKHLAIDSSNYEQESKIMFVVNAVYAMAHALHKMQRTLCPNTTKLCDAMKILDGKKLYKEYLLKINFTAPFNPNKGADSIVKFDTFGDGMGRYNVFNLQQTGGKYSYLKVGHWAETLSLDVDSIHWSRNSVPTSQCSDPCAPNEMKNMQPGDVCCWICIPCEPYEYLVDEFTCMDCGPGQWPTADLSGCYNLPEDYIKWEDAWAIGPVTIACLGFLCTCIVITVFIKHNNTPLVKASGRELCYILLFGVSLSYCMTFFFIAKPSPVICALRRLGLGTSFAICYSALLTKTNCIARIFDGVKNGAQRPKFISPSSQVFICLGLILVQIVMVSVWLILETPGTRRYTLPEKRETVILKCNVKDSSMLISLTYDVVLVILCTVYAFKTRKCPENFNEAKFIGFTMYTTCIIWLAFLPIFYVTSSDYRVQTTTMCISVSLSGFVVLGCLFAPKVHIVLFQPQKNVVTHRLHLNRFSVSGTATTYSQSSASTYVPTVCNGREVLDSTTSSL
Procedure: All cell culture reagents were purchased from Invitrogen Corp. (Carlsbad, Calif.) unless otherwise noted. Compound activity at the group II (mGlu2 and mGlu3) mGlus was assessed using thallium flux through GIRK channels. Briefly, cells were plated into 384-well, black-walled, clear-bottomed poly-D-lysine-coated plates at a density of 15,000 cells/20 μL/well in DMEM containing 10% dialyzed FBS, 20 mM HEPES, and 100 units/mL penicillin/streptomycin (assay media). Plated cells were incubated overnight at 37° C. in the presence of 5% CO2. […] Cells were incubated for 1 h at room temperature, and the dye exchanged to assay buffer using an ELX405, leaving 20 μL/well. Test compounds were diluted to 2 times their final desired concentration in assay buffer (0.3% DMSO final concentration). […] Cell plates and compound plates were loaded onto a kinetic imaging plate reader (FDSS 6000 or 7000; Hamamatsu Corporation, Bridgewater, N.J.). Appropriate baseline readings were taken (10 images at 1 Hz; excitation, 470±20 nm; emission, 540±30 nm) and test compounds were added in a 20 μL volume and incubated for either 2.5 min or 60 min as indicated before the addition of 10 μL of thallium buffer with or without agonist. […] Data were analyzed using Excel (Microsoft Corp, Redmond, Wash.). […] Potencies were calculated from fits using a four-point parameter logistic equation. […]

[3] = test system: Male Wistar rats; assay: Forced Swim Test (FST); format: in vivo; conditions: rat, FIG. 1
Procedure: Male Wistar rats (Charles River, Hollister, Calif.), weighing 175-225 g (Charles River, Portage, Ind.) used for the forced swim test study were housed in pairs with food and water available ad libitum, except during testing, in a temperature and humidity controlled vivarium (21° C.). Rats were maintained on a 12-hour reverse light-dark cycle with lights on at 6 pm. All experimental procedures occurred during the dark cycle, were approved by the Institutional Animal Care and Use Committee of the Scripps Research Institute, and were in accordance with the Association for the Assessment and Accreditation of Laboratory Animal Care (AAALAC) guidelines. […]
After the habituation swim and 24 hours prior to the test swim, rats were administered one of three doses of a mGlu2/3 NAM, with doses and pretreatment time based on maximal brain penetration as determined by PK studies for each compound. Blood and brain tissue were collected immediately after the FST and the PK properties of each compound were analyzed together with FST behavior. […] Twenty-four hours after their first exposure, the animals were again placed in the swim apparatus for 5 min, and behaviors were monitored from above by video camera for subsequent analysis. The rater of the behavioral patterns was blind with respect to the experimental conditions being scored. […]

[4] = test system: R6/2 mice; conditions: daily subcutaneous 20 mg/kg (MTD) beginning at 4 weeks; cited from earlier work
[5] = test system: cultured spinal cord astrocytes; conditions: astrocytes from wild-type and mGlu2 knockout mice, not mGlu3 knockout; cited from earlier work
[6] = test system: wild-type and mGlu2 knockout mice; conditions: acute 0.5, 1 or 5 mg/kg, i.p.; not in mGlu3 knockout mice; cited from earlier work
[7] = test system: SOD1G93A mice; conditions: continuous treatment 1 or 5 mg/kg/day; cited from earlier work
[8] = test system: reserpine-treated rat; conditions: cited from earlier work

Sequence of mGlu2 receptor (P31421 19-872): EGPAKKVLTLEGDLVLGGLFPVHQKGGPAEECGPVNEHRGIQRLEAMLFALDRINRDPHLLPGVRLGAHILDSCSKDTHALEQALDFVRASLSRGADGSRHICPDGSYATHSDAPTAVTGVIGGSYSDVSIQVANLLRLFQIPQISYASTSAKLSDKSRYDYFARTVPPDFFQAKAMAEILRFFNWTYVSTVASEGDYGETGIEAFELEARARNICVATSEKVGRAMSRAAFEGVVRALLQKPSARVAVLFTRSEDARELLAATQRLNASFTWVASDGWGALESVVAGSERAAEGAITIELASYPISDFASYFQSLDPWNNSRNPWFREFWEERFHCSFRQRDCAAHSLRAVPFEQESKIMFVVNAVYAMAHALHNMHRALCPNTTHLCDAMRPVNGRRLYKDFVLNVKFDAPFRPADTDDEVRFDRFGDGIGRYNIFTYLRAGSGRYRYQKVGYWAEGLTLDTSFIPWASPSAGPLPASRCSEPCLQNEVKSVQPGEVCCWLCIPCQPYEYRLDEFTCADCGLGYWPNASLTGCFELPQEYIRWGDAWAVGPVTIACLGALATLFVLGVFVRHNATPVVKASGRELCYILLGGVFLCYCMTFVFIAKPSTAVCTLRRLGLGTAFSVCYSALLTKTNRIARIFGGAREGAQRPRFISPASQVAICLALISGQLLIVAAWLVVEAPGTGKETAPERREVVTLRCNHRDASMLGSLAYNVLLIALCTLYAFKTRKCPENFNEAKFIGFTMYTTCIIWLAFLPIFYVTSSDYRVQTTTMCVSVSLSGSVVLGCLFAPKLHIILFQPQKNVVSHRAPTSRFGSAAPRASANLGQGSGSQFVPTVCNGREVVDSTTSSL

With `Cc1cc2c(cc1C(F)(F)F)NC(=O)CC(c1cccc(Oc3ccccc3)c1)N2` (centres unmarked) [Example 177, 7-Methyl-4-(3-phenoxyphenyl)-8-(trifluoromethyl)-4,5-dihydro-1H-benzo[b][1,4]diazepin-2(3H)-one] the EC50 ([1]; test compound incubated 2.5 min before EC80 glutamate, read-out: mGlu2 EC50 (μM) (2.5 min)) was greater than 10 µM, the EC50 ([1]; read-out: mGlu2 EC50 (μM) (60 min), test compound incubated 60 min before EC80 glutamate) was greater than 10 µM and the EC50 [2] was greater than 10 µM.

For `N#Cc1cc(C2=Nc3ccc(Br)cc3NC(=O)C2)ccn1` [Example 182, 4-(8-Bromo-2-oxo-2,3-dihydro-1H-benzo[b][1,4]diazepin-4-yl)picolinonitrile], the “antidepressant activity in the Forced Swim Test (immobility, swimming)” value [3] was “antidepressant activity by decreasing immobility and increasing swimming”.

For `O=C1CC(c2ccnc(Br)c2)=Nc2ccc(C(F)(F)F)cc2N1` [Example 191, 4-(2-Bromopyridin-4-yl)-8-(trifluoromethyl)-1,3-dihydro-2H-benzo[b][1,4]diazepin-2-one], the “antidepressant activity in the Forced Swim Test (immobility, swimming)” value [3] was “antidepressant activity by decreasing immobility and increasing swimming”.

In the case of `N[C@@]1(C(=O)O)CO[C@H]2[C@H](C(=O)O)[C@H]21` [LY379268], the “phenotype in R6/2 mice” value [4] is given as “dramatically improves the phenotype”, the “GDNF levels in astrocytes” value [5] is given as “enhanced GDNF levels” and the “spinal cord GDNF levels” value [6] is given as “enhanced spinal cord GDNF levels”. For the same compound, the “neurological disability in SOD1G93A mice” value [7] was “beneficial effect on neurological disability”, the “reserpine-induced akinesia after systemic administration” value ([8]; 0.1, 1, 10 mg/kg ip) was “did not reverse reserpine-induced akinesia” and the “locomotor activity after intracerebroventricular administration” value ([8]; 1, 5, 10, 20 nmol/2 μl icv, reserpine (5 mg/kg ip)-treated rat) was “dose-dependent increase in locomotor activity”.
